Data taken from patent publication US20250248936A1 (priority 2022, published 2025).
“And” between values parts separate entries of the source, which are not always exact repeats. Equal values may be shown once.

Legend:
Assay type in all cases: in vivo, female turkeys
H. meleagridis [1] = assay: Controlling Histomoniasis in turkeys (QSC, QS15 750 ppm); details: MED 30 mg/kg bird/day, QSC 750 ppm
Description: A total of 200 3-week-old female turkeys were randomly grouped into 9 pens. The groups were: control (−) (CON), control (+) (POS), metronidazole (MED), two 750 PPM QSC-treated groups, and two groups treated with 750 PPM QS15-treated groups. The CON group was not challenged or treated with any product, POS was only inoculated a H. meleagridis suspension, and the MED group was inoculated with the same dose and treated with 30 mg/kg metronidazole per bird/day. The CON group was comprised of 16 young female turkeys, while the remainder comprised 23 each. Table 17 summarizes the bird distribution according to treatment, as well as the appropriate product dosage.
The treatments were started at 3 weeks of age. The H. meleagridis challenge suspension had approximately 100000 cells/mL and was inoculated at 4 weeks of […] age. Weight was measured at 3, 6 and 8 weeks of age. Feed intake was estimated at 6 and 8 weeks of age. The young female turkey mortality rate was recorded throughout the trial, and lesions were measured by using a previously standardized lesion scoring at 8 weeks of age.

H. meleagridis [2] = assay: Controlling Histomoniasis in turkeys (QSC and QHS); details: MED 30 mg/kg bird/day; QHS 1500 ppm; QSC 750 ppm
Description: A total of 160 3-week-old female turkeys were randomly grouped into 10 pens. The groups were: control (−) CON, control (+) POS, MED (metronidazole), and two different treatments, (QSC and QHS's active content under treatment) is set). Control group (−) was not challenged or treated with any product, control (+) was only inoculated with a H. meleagridis suspension, and the MED group was inoculated with the same dose and treated with metronidazole, 30 mg/kg bird/day. […] Table 22 summarizes bird distribution according to treatments, as well as the appropriate product dosage.
(§1) The treatments were started as of 3 weeks of age. The H. meleagridis challenge suspension contained 100000 cells/mL, approximately, and was inoculated as of 4 weeks of age, cloacal route. The female turkey mortality rate was recorded throughout the trial, and lesions were measured by using a previously standardized lesion scoring at 8 weeks of age.

H. meleagridis [3] = assay: Controlling Histomoniasis in turkeys (BQ batches 3250 ppm); details: MED 30 mg/kg bird/day; BQ-1, BQ-2, BQ-3 3250 ppm
Description: A total of 200 3-week-old young female turkeys were randomly grouped in 10 pens. The groups were: control (−) CON, control (+) POS, MED (metronidazole), 3 groups treated with BQ. BQ is a quillay wood-based additive where three different batches were evaluated with (2.5-5.5%) saponins.
as §1, with “100000 cell/ml,” for “100000 cells/mL,”, “inoculated at” for “inoculated as of”, “age, via” for “age,”

H. meleagridis [4] = assay: Controlling Histomoniasis in turkeys (QSC HD 1500 ppm); details: MED 30 mg/kg bird/day
Description: A total of 160 3-week-old female turkeys were randomly grouped into 10 pens. The groups were: control (−) CON, control (+) POS, metronidazole (MED), two groups treated with QSC at 1500 ppm (HD greater dose than in the previous trial). The CON group was not challenged or treated with any product; POS control was only inoculated with a H. meleagridis suspension, and the MED group was inoculated with the same dose and treated with metronidazole, 30 mg/kg bird/day. […] Table 1208 summarizes bird distribution according to treatments, as well as the appropriate product dosage.
The treatments were started as of 3 weeks of age. The H. meleagridis challenge suspension was 100000 cell/mL, approximately, and was inoculated at 4 weeks of age, via cloacal route. Female turkey mortality rate was recorded throughout the trial, and lesions were measured by using a previously standardized lesion scoring at 8 weeks of age.

Cc1ncc([N+](=O)[O-])n1CCO [MED, metronidazole]
Cecum lesion score (H. meleagridis [1]): 0.2a | Liver lesion score (H. meleagridis [1]): 0.0a | Mortality (%) (H. meleagridis [1]): 2% and 2a % | Cecum lesion score (H. meleagridis [2]): 1.5c | Liver lesion score (H. meleagridis [2]): 0.3a | Mortality (%) (H. meleagridis [2]): 25% and 25.00ab % | Cecum lesion score (H. meleagridis [3]): 0.85a | Liver lesion score (H. meleagridis [3]): 0.5ab | Mortality (%) (H. meleagridis [3]): 10% and 10.00ab % | Cecum lesion score (H. meleagridis [4]): 1.3b | Liver lesion score (H. meleagridis [4]): 0.28ab | Mortality (%) (H. meleagridis [4]): 10% and 10a %
